Tests used:
[1] = Toxicokinetics in rats; assay type: in vivo, rat
Protocol: A study is carried out to assess the toxicity and toxicokinetics of 4,4,4-Trifluoro-N-[(1S)-2-[[(7S)-5-(2-hydroxyethyl)-6-oxo-7H-pyrido[2,3-d][3]benzazepin-7-yl]amino]-1-methyl-2-oxo-ethyl]butanamide in rats given oral gavage doses of 0, 1.3, or 4.3 mg/kg once daily for 2 weeks or 1, 3, 10, or 30 mg/kg 3 times/week for 2 weeks.
4,4,4-Trifluoro-N-[(1S)-2-[[(7S)-5-(2-hydroxyethyl)-6-oxo-7H-pyrido[2,3-d][3]benzazepin-7-yl]amino]-1-methyl-2-oxo-ethyl]butanamide is combined with a vehicle comprising 1% carboxymethylcellulose sodium, 0.25% polysorbate 80 and 0.05% Dow Corning® Antifoam 1510-US in purified water. Sprague Dawley CD®/IGS rats (crl:CD(SD)), International Genetic Standardization (IGS) 7-9 week old rats, 3/sex/group, Charles River Laboratories, Inc, are used for the study. Animals are fed ad libitum with 12 hours light, 12 hours dark cycle maintained in ventilated stainless-steel racks at an ambient temperature of 22.2+/[…] and relative humidity of 30% to 70%. The test compound is dosed according to Table 1. The test compound is administered by oral gavage in a volume of 10 mL/kg body weight. The duration of the study for all groups is 14 days.
Additional Groups of animals 3/sex/group (Groups 08, 09, and 12) and 3 females/group (Groups 10, 11, and 13) are dosed for toxicokinetic evaluations. For Groups 08, 09, and 10, blood is collected from each animal at the following times relative to dosing on Days 3 and 14: 0 (predose; Day 14 only), 0.5, 1, 2, 4, 8, 24, 30, and 48 hours postdose. For Group 11, blood is collected from each animal at the following times relative to dosing on Day 3: 0.5, 1, 2, 4, 8, 24, 30, and 48 hours postdose. For Group 12, blood is collected from each animal at the following times relative to dosing on Days 1 and 14: 0 (predose; Day 14 only), 0.5, 1, 2, 4, 8, and 24 hours postdose. For Group 13 blood is collected from each animal at the following times relative to dosing on Day 1: 0.5, 1, 2, 4, 8, and 24 hours postdose. Groups 08 through 13 are used for toxicokinetic evaluations. […]

[2] = Toxicokinetics in Beagle dogs; assay type: in vivo, dog; details: for Cmax: beagle, po
Protocol: A study is carried out to assess the Toxicity and Toxicokinetics of 4,4,4-trifluoro-N-[(1S)-2-[[(7S)-5-(2-hydroxyethyl)-6-oxo-7H-pyrido[2,3-d][3]benzazepin-7-yl]amino]-1-methyl-2-oxo-ethyl]butanamide in dogs given oral gavage doses of 0 or 1.3 mg/kg once daily for 6 days or 0.3 or 3 mg/kg every other day for a total of 3 doses. 4,4,4-Trifluoro-N-[(1S)-2-[[(7S)-5-(2-hydroxyethyl)-6-oxo-7H-pyrido[2,3-d][3]benzazepin-7-yl]amino]-1-methyl-2-oxo-ethyl]butanamide is combined with a vehicle comprising 1% carboxymethylcellulose sodium, 0.25% polysorbate 80 and 0.05% Dow Corning® Antifoam 1510-US in purified water. Dogs (beagle), Covance Research Products, 1 animal/sex/group are fed daily (soon after dosing) and are fasted overnight prior to scheduled chemistry blood collections and necropsy. The test compound is administered by oral gavage in a volume of 2 mL/kg body weight. The duration of the study for all groups is 6 days.
Groups 01 and 04, Blood is collected at the following times relative to dosing on Day 1: 0.5, 1, 2, 4, 8, and 24 hours postdose.
Groups 02 and 04: Blood is collected at the following times relative to dosing on Days 2 and 6: 0 (predose; Day 6 only), 0.5, 1, 2, 4, 8, 24, 30, and 48 hours postdose.

[3] = Beagle dog, single oral dose 1.3 mg/kg, Subject 0007_M
[4] = Beagle dog, single oral dose 1.3 mg/kg, Subject 0008_F
[5] = Beagle dogs, multiple oral doses (3 doses/week), 0.3 mpk, mean n = 2
[6] = Beagle dogs, multiple oral doses (3 doses/week), 3 mpk, mean n = 2
[7] = Beagle dogs, single oral dose 1.3 mg/kg, Mean, n = 2
[8] = Beagle dogs, single oral dose, 0.3 mpk, mean n = 2
[9] = Beagle dogs, single oral dose, 3 mpk, mean n = 2

**Q.** Which “24 hour drug concentrations” value ([1]; rat, daily and TIW regimens) does the source give for `C[C@H](NC(=O)CCC(F)(F)F)C(=O)N[C@@H]1C(=O)N(CCO)c2ncccc2-c2ccccc21` [Compound 1, 4,4,4-trifluoro-N-[(1S)-2-[[(7S)-5-(2-hydroxyethyl)-6-oxo-7H-pyrido[2,3-d][3]benzazepin-7-yl]amino]-1-methyl-2-oxo-ethyl]butanamide] here?
**A.** minimal

**Q.** What about the “Accumulation and differences between sexes in exposure” value ([1]; rats, oral gavage) of the same molecule?
**A.** No accumulation or major differences between sexes

**Q.** And the “Exposure (AUC0-24 hr) versus dose” value ([1]; rats, oral gavage, following both single and multiple doses)?
**A.** increased in a roughly linear and dose-proportional manner

**Q.** What about the AUC [2, 3] of the same molecule?
**A.** 4030 ng·h/mL

**Q.** And the Tmax [2, 3]?
**A.** 30 min

**Q.** What about the AUC [2, 4] of the same molecule?
**A.** 4500 ng·h/mL

**Q.** And the Tmax [2, 4]?
**A.** 30 min

**Q.** And the AUC [2, 5]?
**A.** 3070 ng·h/mL

**Q.** And the Tmax [2, 5]?
**A.** 45 min

**Q.** And the AUC [2, 6]?
**A.** 14400 ng·h/mL

**Q.** And the Tmax [2, 6]?
**A.** 45 min

**Q.** And the AUC [2, 7]?
**A.** 4270 ng·h/mL

**Q.** And the Tmax [2, 7]?
**A.** 30 min

**Q.** What about the AUC [2, 8] of the same molecule?
**A.** 1290 ng·h/mL

**Q.** What about the Tmax [2, 8] of the same molecule?
**A.** 30 min

**Q.** And the AUC [2, 9]?
**A.** 5860 ng·h/mL

**Q.** What about the Tmax [2, 9] of the same molecule?
**A.** 30 min

**Q.** What about the Cmax ([2]; both sexes, dog, blood, 1.3 mg/kg, Beagle dogs, single oral dose 1.3 mg/kg, Mean, n = 2) of the same molecule?
**A.** 1940 ng/mL

**Q.** What about the Cmax ([2]; both sexes, dog, in vivo, 0.3 mg/kg, Beagle dogs, multiple oral doses (3 doses/week), 0.3 mpk, mean n = 2) of the same molecule?
**A.** 2460 ng/mL

**Q.** And the Cmax ([2]; both sexes, dog, in vivo, 0.3 mg/kg, Beagle dogs, single oral dose, 0.3 mpk, mean n = 2)?
**A.** 309 ng/mL

**Q.** And the Cmax ([2]; both sexes, dog, in vivo, 3 mg/kg, Beagle dogs, multiple oral doses (3 doses/week), 3 mpk, mean n = 2)?
**A.** 4530 ng/mL

**Q.** And the Cmax ([2]; both sexes, dog, in vivo, 3 mg/kg, Beagle dogs, single oral dose, 3 mpk, mean n = 2)?
**A.** 2730 ng/mL

**Q.** And the “24 hour drug concentrations” value ([2]; dog, daily and TIW regimens)?
**A.** minimal

**Q.** What about the Cmax ([2]; female, dog, blood, 1.3 mg/kg, Beagle dog, single oral dose 1.3 mg/kg, Subject 0008_F) of the same molecule?
**A.** 2070 ng/mL

**Q.** What about the Cmax ([2]; male, dog, blood, 1.3 mg/kg, Beagle dog, single oral dose 1.3 mg/kg, Subject 0007_M) of the same molecule?
**A.** 1800 ng/mL
